Results: PMC9571063 (Molecules, 2022)

Columns and labels:
Assay in all cases: KINOMEscan
Type in all cases: binding
Conditions in all cases: read-out: Percent Control
MAPKAPK5 = target: T1, MAPKAPK5 (Homo sapiens, UniProt Q8IW41)
T1 construct: purchased Eurofins DiscoverX KINOMEscan (scanMAX 468)

FLT3(N841I) = target: T2, FLT3(N841I) (Homo sapiens, UniProt P36888, N841I)
T2 construct: purchased Eurofins DiscoverX KINOMEscan (scanMAX 468)

SIK2 = target: T3, SIK2 (Homo sapiens, UniProt Q9H0K1)
T3 construct: purchased Eurofins DiscoverX KINOMEscan (scanMAX 468)

DDR2 = target: T4, DDR2 (Homo sapiens, UniProt Q16832)
T4 construct: purchased Eurofins DiscoverX KINOMEscan (scanMAX 468)

ERK4 = target: T5, ERK4 (Homo sapiens, UniProt P31152)
T5 construct: purchased Eurofins DiscoverX KINOMEscan (scanMAX 468)

RIOK2 = target: T6, RIOK2 (Homo sapiens, UniProt Q9BVS4)
T6 construct: purchased Eurofins DiscoverX KINOMEscan (scanMAX 468)

STK35 = target: T7, STK35 (Homo sapiens, UniProt Q8TDR2)
T7 construct: purchased Eurofins DiscoverX KINOMEscan (scanMAX 468)

LRRK2(G2019S) = target: T8, LRRK2(G2019S) (Homo sapiens, UniProt Q5S007, G2019S)
T8 construct: purchased Eurofins DiscoverX KINOMEscan (scanMAX 468)

EPHA8 = target: T9, EPHA8 (Homo sapiens, UniProt P29322)
T9 construct: purchased Eurofins DiscoverX KINOMEscan (scanMAX 468)

NEK5 = target: T10, NEK5 (Homo sapiens, UniProt Q6P3R8)
T10 construct: purchased Eurofins DiscoverX KINOMEscan (scanMAX 468)

PIP5K2B = target: T11, PIP5K2B (Homo sapiens, UniProt P78356)
T11 construct: purchased Eurofins DiscoverX KINOMEscan (scanMAX 468)

DAPK1 = target: T12, DAPK1 (Homo sapiens, UniProt P53355)
T12 construct: purchased Eurofins DiscoverX KINOMEscan (scanMAX 468)

CDK11 = target: T13, CDK11 (Homo sapiens, UniProt Q9BWU1)
T13 construct: purchased Eurofins DiscoverX KINOMEscan (scanMAX 468)

[1] = target: T14, ABL1(F317L)-nonphosphorylated (Homo sapiens, UniProt P00519, F317L)
T14 construct: purchased Eurofins DiscoverX KINOMEscan (scanMAX 468)

MKK7 = target: T15, MKK7 (Homo sapiens, UniProt O14733)
T15 construct: purchased Eurofins DiscoverX KINOMEscan (scanMAX 468)

SBK1 = target: T16, SBK1 (Homo sapiens, UniProt Q52WX2)
T16 construct: purchased Eurofins DiscoverX KINOMEscan (scanMAX 468)

MLK3 = target: T17, MLK3 (Homo sapiens, UniProt Q16584)
T17 construct: purchased Eurofins DiscoverX KINOMEscan (scanMAX 468)

TNK2 = target: T18, TNK2 (Homo sapiens, UniProt Q07912)
T18 construct: purchased Eurofins DiscoverX KINOMEscan (scanMAX 468)

TTK = target: T19, TTK (Homo sapiens, UniProt P33981)
T19 construct: purchased Eurofins DiscoverX KINOMEscan (scanMAX 468)

MARK4 = target: T20, MARK4 (Homo sapiens, UniProt Q96L34)
T20 construct: purchased Eurofins DiscoverX KINOMEscan (scanMAX 468)

CDKL1 = target: T21, CDKL1 (Homo sapiens, UniProt Q00532)
T21 construct: purchased Eurofins DiscoverX KINOMEscan (scanMAX 468)

MST4 = target: T22, MST4 (Homo sapiens, UniProt Q9P289)
T22 construct: purchased Eurofins DiscoverX KINOMEscan (scanMAX 468)

HIPK3 = target: T23, HIPK3 (Homo sapiens, UniProt Q9H422)
T23 construct: purchased Eurofins DiscoverX KINOMEscan (scanMAX 468)

KIT(A829P) = target: T24, KIT(A829P) (Homo sapiens, UniProt P10721, A829P)
T24 construct: purchased Eurofins DiscoverX KINOMEscan (scanMAX 468)

PFPK5(P.falciparum) = target: T25, PFPK5(P.falciparum) (Plasmodium falciparum, UniProt P61075)
T25 construct: purchased Eurofins DiscoverX KINOMEscan (scanMAX 468)

PYK2 = target: T26, PYK2 (Homo sapiens, UniProt Q14289)
T26 construct: purchased Eurofins DiscoverX KINOMEscan (scanMAX 468)

EPHA1 = target: T27, EPHA1 (Homo sapiens, UniProt P21709)
T27 construct: purchased Eurofins DiscoverX KINOMEscan (scanMAX 468)

TXK = target: T28, TXK (Homo sapiens, UniProt P42681)
T28 construct: purchased Eurofins DiscoverX KINOMEscan (scanMAX 468)

PLK1 = target: T29, PLK1 (Homo sapiens, UniProt P53350)
T29 construct: purchased Eurofins DiscoverX KINOMEscan (scanMAX 468)

ZAP70 = target: T30, ZAP70 (Homo sapiens, UniProt P43403)
T30 construct: purchased Eurofins (KINOMEscan, DiscoverX)

[2] = target: T31, ABL1(H396P)-nonphosphorylated (Homo sapiens, UniProt P00519, H396P)
T31 construct: purchased Eurofins DiscoverX KINOMEscan (scanMAX 468)

SGK = target: T32, SGK (Homo sapiens, UniProt O00141)
T32 construct: purchased Eurofins DiscoverX KINOMEscan (scanMAX 468)

HPK1 = target: T33, HPK1 (Homo sapiens, UniProt Q92918)
T33 construct: purchased Eurofins DiscoverX KINOMEscan (scanMAX 468)

TLK1 = target: T34, TLK1 (Homo sapiens, UniProt Q9UKI8)
T34 construct: purchased Eurofins DiscoverX KINOMEscan (scanMAX 468)

CIT = target: T35, CIT (Homo sapiens, UniProt O14578)
T35 construct: purchased Eurofins DiscoverX KINOMEscan (scanMAX 468)

JNK2 = target: T36, JNK2 (Homo sapiens, UniProt P45984)
T36 construct: purchased Eurofins DiscoverX KINOMEscan (scanMAX 468)

BRK = target: T37, BRK (Homo sapiens, UniProt Q13882)
T37 construct: purchased Eurofins DiscoverX KINOMEscan (scanMAX 468)

FES = target: T38, FES (Homo sapiens, UniProt P07332)
T38 construct: purchased Eurofins DiscoverX KINOMEscan (scanMAX 468)

FLT3(D835V) = target: T39, FLT3(D835V) (Homo sapiens, UniProt P36888, D835V)
T39 construct: purchased Eurofins DiscoverX KINOMEscan (scanMAX 468)

CDC2L1 = target: T40, CDC2L1 (Homo sapiens, UniProt P21127)
T40 construct: purchased Eurofins DiscoverX KINOMEscan (scanMAX 468)

TGFBR2 = target: T41, TGFBR2 (Homo sapiens, UniProt P37173)
T41 construct: purchased Eurofins DiscoverX KINOMEscan (scanMAX 468)

MRCKB = target: T42, MRCKB (Homo sapiens, UniProt Q9Y5S2)
T42 construct: purchased Eurofins DiscoverX KINOMEscan (scanMAX 468)

STK36 = target: T43, STK36 (Homo sapiens, UniProt Q9NRP7)
T43 construct: purchased Eurofins DiscoverX KINOMEscan (scanMAX 468)

p38-delta = target: T44, p38-delta (Homo sapiens, UniProt O15264)
T44 construct: purchased Eurofins DiscoverX KINOMEscan (scanMAX 468)
T44 sequence (O15264 whole entry): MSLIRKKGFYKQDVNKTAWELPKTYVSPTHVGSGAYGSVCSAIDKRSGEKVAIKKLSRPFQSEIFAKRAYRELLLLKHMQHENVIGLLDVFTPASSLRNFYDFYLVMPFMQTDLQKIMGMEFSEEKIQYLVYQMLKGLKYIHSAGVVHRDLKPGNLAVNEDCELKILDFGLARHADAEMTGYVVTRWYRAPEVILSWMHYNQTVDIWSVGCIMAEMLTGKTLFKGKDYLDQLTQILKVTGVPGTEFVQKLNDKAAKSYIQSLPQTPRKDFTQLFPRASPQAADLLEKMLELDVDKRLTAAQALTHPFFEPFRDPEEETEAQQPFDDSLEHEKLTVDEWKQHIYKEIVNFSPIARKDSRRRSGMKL

T1 sequence (Q8IW41 whole entry): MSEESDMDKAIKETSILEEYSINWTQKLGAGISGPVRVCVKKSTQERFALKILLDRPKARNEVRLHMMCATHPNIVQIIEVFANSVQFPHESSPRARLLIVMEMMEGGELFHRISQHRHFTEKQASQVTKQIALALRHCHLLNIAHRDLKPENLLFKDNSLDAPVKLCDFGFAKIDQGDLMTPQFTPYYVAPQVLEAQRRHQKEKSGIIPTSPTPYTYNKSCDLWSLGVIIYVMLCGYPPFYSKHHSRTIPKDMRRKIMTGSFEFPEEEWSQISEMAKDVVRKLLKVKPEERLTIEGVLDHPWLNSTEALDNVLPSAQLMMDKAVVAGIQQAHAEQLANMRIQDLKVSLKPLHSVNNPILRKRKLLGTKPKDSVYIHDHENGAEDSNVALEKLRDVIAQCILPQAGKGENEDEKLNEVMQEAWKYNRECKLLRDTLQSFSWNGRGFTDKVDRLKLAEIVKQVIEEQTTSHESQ
T32 sequence (O00141 whole entry): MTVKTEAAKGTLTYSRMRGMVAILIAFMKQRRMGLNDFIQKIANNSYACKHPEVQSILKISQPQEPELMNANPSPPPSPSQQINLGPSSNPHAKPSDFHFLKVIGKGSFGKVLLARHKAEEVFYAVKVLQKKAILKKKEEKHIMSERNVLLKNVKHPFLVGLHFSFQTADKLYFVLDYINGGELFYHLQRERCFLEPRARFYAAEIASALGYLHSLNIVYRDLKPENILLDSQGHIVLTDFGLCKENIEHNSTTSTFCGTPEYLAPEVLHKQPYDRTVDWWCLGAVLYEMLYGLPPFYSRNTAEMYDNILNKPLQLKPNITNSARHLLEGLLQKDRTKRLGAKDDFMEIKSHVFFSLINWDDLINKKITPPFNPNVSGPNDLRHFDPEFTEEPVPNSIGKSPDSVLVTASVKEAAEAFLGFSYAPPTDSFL
T38 sequence (P07332 whole entry): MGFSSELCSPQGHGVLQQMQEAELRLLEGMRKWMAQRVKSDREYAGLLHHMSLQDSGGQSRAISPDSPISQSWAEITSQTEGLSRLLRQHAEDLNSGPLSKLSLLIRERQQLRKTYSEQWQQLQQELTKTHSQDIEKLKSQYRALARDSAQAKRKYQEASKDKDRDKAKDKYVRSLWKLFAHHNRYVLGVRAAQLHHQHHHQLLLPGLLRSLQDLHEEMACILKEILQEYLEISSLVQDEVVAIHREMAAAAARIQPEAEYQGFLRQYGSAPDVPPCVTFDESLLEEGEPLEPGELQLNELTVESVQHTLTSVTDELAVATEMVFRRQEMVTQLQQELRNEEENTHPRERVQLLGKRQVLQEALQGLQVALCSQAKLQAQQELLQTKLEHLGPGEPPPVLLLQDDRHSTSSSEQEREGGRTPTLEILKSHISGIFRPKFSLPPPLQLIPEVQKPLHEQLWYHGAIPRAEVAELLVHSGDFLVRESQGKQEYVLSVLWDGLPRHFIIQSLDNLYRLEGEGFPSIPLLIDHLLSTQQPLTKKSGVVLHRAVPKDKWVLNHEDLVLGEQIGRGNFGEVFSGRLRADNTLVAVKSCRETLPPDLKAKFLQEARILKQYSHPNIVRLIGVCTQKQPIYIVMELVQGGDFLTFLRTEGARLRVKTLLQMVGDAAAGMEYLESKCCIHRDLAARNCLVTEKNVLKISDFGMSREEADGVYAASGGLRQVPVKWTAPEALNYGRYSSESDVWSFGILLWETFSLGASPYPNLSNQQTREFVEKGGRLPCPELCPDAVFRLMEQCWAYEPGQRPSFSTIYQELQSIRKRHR
T3 sequence (Q9H0K1 whole entry): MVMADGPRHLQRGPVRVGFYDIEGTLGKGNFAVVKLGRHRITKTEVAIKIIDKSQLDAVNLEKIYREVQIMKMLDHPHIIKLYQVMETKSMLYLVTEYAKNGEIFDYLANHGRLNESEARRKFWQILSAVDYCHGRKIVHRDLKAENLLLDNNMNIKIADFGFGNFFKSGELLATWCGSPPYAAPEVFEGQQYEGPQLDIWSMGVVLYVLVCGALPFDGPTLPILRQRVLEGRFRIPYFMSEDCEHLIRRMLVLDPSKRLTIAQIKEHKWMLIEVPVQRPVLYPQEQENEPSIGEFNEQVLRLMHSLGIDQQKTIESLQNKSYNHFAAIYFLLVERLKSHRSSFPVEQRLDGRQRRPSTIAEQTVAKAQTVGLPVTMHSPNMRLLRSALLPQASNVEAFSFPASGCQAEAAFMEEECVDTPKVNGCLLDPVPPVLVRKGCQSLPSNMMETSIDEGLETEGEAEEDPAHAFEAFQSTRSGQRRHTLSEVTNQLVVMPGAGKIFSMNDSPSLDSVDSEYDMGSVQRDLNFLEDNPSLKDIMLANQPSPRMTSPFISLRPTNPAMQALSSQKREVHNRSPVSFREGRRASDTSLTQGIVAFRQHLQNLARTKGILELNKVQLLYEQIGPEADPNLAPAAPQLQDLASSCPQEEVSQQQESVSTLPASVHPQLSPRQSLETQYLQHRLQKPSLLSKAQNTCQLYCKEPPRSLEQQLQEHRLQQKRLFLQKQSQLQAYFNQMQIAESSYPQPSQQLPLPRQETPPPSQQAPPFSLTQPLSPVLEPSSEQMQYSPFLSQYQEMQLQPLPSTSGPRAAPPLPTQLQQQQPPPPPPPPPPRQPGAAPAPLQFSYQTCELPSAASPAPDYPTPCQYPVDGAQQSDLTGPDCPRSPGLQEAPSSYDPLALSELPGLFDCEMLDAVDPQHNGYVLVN
T5 sequence (P31152 whole entry): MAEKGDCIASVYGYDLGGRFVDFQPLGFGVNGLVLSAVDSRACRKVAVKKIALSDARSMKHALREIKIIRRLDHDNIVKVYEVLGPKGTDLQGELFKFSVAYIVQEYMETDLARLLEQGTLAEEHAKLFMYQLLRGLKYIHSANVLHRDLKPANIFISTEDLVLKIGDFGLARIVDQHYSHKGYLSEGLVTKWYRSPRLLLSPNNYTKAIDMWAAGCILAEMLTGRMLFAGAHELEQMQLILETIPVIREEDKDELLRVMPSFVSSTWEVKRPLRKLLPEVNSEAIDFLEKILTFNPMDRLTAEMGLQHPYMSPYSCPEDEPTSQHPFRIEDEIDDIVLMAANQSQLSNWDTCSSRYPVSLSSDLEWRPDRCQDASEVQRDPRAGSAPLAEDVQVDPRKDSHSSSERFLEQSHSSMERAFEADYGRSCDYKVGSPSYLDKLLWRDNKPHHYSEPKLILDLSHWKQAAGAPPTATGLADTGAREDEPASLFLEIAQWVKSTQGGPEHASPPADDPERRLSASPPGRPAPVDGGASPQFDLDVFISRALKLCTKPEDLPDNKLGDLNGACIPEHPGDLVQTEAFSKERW
T13 sequence (Q9BWU1 whole entry): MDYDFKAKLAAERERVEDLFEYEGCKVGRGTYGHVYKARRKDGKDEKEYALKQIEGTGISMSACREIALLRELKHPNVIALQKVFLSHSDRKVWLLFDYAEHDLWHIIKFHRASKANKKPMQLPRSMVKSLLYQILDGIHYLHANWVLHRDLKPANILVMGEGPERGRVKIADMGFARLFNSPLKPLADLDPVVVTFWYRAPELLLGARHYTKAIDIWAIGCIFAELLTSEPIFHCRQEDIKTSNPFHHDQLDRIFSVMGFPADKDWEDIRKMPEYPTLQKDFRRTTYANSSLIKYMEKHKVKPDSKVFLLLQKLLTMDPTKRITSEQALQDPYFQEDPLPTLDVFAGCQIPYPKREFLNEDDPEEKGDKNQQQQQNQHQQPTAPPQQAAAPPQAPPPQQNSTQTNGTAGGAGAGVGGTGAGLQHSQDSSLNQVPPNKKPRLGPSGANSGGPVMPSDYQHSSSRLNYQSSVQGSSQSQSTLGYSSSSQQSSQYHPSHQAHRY
T15 sequence (O14733 whole entry): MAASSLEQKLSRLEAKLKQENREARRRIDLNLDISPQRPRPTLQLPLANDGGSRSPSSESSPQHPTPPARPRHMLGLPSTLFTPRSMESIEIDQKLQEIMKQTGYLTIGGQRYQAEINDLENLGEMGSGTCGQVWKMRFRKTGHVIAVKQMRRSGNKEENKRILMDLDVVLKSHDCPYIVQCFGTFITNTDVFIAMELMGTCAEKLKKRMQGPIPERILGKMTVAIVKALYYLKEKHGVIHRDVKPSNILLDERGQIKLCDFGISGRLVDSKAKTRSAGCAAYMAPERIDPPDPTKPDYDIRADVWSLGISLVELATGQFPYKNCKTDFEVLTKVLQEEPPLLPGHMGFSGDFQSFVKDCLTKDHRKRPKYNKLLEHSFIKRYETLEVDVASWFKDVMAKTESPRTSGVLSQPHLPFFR
T25 sequence (P61075 whole entry): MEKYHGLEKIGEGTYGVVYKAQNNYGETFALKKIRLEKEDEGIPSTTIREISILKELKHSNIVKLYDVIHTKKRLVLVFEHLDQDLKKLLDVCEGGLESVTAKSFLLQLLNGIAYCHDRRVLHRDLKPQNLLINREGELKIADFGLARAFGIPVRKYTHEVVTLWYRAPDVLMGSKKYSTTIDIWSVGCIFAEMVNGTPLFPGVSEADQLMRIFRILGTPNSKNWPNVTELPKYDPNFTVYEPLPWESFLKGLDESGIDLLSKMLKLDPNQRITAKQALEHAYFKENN

Cc1ccc(-n2cc(COc3cccc4cnc(Nc5cccc(Cl)c5)nc34)nn2)c([N+](=O)[O-])c1 [DB18]
remaining binding at 1 µM (MAPKAPK5): 99%
remaining binding at 1 µM (FLT3(N841I)): 77%
remaining binding at 1 µM (SIK2): 100%
remaining binding at 1 µM (DDR2): 100%
remaining binding at 1 µM (ERK4): 100%
remaining binding at 1 µM (RIOK2): 100%
remaining binding at 1 µM (STK35): 100%
remaining binding at 1 µM (LRRK2(G2019S)): 95%
remaining binding at 1 µM (EPHA8): 100%
remaining binding at 1 µM (NEK5): 100%
remaining binding at 1 µM (PIP5K2B): 100%
remaining binding at 1 µM (DAPK1): 100%
remaining binding at 1 µM (CDK11): 100%
remaining binding at 1 µM [1]: 100%
remaining binding at 1 µM (MKK7): 100%
remaining binding at 1 µM (SBK1): 100%
remaining binding at 1 µM (MLK3): 100%
remaining binding at 1 µM (TNK2): 100%
remaining binding at 1 µM (TTK): 86%
remaining binding at 1 µM (MARK4): 100%
remaining binding at 1 µM (CDKL1): 88%
remaining binding at 1 µM (MST4): 97%
remaining binding at 1 µM (HIPK3): 46%
remaining binding at 1 µM (KIT(A829P)): 100%
remaining binding at 1 µM (PFPK5(P.falciparum)): 100%
remaining binding at 1 µM (PYK2): 100%
remaining binding at 1 µM (EPHA1): 95%
remaining binding at 1 µM (TXK): 96%
remaining binding at 1 µM (PLK1): 100%
remaining binding at 1 µM (ZAP70): 100%
remaining binding at 1 µM [2]: 96%
remaining binding at 1 µM (SGK): 100%
remaining binding at 1 µM (HPK1): 100%
remaining binding at 1 µM (TLK1): 100%
remaining binding at 1 µM (CIT): 100%
remaining binding at 1 µM (JNK2): 96%
remaining binding at 1 µM (BRK): 100%
remaining binding at 1 µM (FES): 100%
remaining binding at 1 µM (FLT3(D835V)): 67%
remaining binding at 1 µM (CDC2L1): 100%
remaining binding at 1 µM (TGFBR2): 100%
remaining binding at 1 µM (MRCKB): 94%
remaining binding at 1 µM (STK36): 100%
remaining binding at 1 µM (p38-delta): 100%
